Measurements published in patent US8895733B2 (Novartis AG, priority 2010, dated 2014).

Target: T1, Nav 1.7 (Homo sapiens, UniProt Q15858)
T1 construct: expressed in transfected cells
Assay: Whole-cell voltage clamp electrophysiology, automated patch clamp (marker c in Table of Examples)
Format: cell-based
Details: marker c = Automated patch clamp data; read-out: Nav 1.7 activity
Summary of the method: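 A voltage protocol weighted toward inactivated-state block was used to test compounds on stably expressing cells, with pulses from −65 mV holding to −10 mV test and −100 mV. Currents came from whole-cell automated patch-clamp recordings, either IonWorks Quattro or other automated instruments, usually in perforated-patch mode.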

T1 sequence (Q15858 whole entry): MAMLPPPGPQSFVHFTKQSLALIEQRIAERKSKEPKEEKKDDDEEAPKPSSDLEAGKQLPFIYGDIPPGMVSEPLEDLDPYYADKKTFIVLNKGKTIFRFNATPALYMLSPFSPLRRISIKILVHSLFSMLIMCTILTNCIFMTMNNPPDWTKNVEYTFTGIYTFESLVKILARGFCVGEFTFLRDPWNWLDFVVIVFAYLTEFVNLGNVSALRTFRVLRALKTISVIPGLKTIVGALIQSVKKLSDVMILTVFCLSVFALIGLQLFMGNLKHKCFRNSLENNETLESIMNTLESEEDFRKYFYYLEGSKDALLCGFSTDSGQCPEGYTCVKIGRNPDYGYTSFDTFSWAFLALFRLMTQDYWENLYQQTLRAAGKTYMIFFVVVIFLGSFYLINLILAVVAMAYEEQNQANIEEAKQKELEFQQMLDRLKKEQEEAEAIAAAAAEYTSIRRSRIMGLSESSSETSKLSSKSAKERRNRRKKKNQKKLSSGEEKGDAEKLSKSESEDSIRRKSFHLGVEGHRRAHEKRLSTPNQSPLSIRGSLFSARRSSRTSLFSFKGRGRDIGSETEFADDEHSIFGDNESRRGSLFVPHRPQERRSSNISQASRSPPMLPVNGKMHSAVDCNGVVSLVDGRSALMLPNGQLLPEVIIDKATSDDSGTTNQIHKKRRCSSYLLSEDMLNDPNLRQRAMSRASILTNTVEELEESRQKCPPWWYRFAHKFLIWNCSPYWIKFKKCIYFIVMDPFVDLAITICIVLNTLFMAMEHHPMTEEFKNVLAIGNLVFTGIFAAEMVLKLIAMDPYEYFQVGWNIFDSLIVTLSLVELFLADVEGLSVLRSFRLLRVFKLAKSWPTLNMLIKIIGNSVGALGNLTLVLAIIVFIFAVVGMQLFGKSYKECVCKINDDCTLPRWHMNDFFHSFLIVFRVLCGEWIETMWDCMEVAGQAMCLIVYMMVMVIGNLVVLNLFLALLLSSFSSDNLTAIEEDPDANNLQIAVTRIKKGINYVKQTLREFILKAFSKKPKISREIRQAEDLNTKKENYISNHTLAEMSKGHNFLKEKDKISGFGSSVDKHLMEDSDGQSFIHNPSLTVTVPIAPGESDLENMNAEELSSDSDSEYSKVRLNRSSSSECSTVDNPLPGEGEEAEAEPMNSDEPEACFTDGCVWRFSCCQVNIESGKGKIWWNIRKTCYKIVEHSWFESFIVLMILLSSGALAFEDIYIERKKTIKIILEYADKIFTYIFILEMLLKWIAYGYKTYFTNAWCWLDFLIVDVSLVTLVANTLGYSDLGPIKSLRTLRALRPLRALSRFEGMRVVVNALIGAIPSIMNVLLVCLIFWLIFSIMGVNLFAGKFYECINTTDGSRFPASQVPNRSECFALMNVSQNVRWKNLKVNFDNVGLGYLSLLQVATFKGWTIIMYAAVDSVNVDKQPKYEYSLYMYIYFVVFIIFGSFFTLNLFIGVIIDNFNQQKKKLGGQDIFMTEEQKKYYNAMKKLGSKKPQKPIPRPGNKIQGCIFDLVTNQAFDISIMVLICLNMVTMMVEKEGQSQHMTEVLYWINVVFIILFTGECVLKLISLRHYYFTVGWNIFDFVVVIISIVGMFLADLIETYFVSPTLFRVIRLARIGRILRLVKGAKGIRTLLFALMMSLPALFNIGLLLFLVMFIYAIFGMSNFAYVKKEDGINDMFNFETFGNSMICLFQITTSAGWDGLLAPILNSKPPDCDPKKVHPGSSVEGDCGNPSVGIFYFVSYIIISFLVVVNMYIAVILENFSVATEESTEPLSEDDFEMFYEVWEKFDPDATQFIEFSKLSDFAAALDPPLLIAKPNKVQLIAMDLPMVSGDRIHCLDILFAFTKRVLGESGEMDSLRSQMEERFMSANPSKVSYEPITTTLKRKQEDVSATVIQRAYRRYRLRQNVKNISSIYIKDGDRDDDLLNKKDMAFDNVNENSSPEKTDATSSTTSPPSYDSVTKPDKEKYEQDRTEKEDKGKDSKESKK

| SMILES | IC50 [µM] |
| --- | --- |
| CN(c1ccccc1)c1nc(N)nc(-c2noc(-c3ccn(C)n3)n2)n1 [Example 252, 2-N-methyl-6-[5-(1-methyl-1H-pyrazol-3-yl)-1,2,4-oxadiazol-3-yl]-2-N-phenyl-1,3,5-triazine-2,4-diamine] | 2.38 |
| CN(c1ccccc1)c1nc(N)nc(-c2noc(-c3ccnn3C)n2)n1 [Example 253, 2-N-methyl-6-[5-(1-methyl-1H-pyrazol-5-yl)-1,2,4-oxadiazol-3-yl]-2-N-phenyl-1,3,5-triazine-2,4-diamine] | 4.56 |
| CN(c1ccccc1)c1nc(N)nc(-c2noc(-c3n[nH]cc3Cl)n2)n1 [Example 254, 6-[5-(4-chloro-1H-pyrazol-3-yl)-1,2,4-oxadiazol-3-yl]-2-N-methyl-2-N-phenyl-1,3,5-triazine-2,4-diamine] | 0.548 |
| CN(c1ccccc1)c1nc(N)nc(-c2noc(-c3cc(C(F)(F)F)[nH]n3)n2)n1 [Example 255, 2-N-methyl-2-N-phenyl-6-{5-[5-(trifluoromethyl)-1H-pyrazol-3-yl]-1,2,4-oxadiazol-3-yl}-1,3,5-triazine-2,4-diamine] | 6.45 |
| CN(c1ccccc1)c1nc(N)nc(-c2noc(-c3ccnn3CC(F)(F)F)n2)n1 [Example 257, 2-N-methyl-2-N-phenyl-6-{5-[1 - (2,2,2-trifluoroethyl)-1H-pyrazol-5-yl]-1,2,4-oxadiazol-3-yl}-1,3,5-triazine-2,4-diamine] | 3.25 |
| COc1ccc(NC(=O)c2nc(-c3nc(N)nc(N(C)c4ccccc4)n3)no2)cn1 [Example 258, 3-{4-Amino-6-[methyl(phenyl)amino]-1,3,5-triazin-2-yl}-N-(6-methoxypyridin-3-yl)-1,2,4-oxadiazole-5-carboxamide] | 1.85 |
| CN(c1ccccc1)c1nc(N)nc(-c2noc(C(=O)NCc3ccc(OCC(F)(F)F)nc3)n2)n1 [Example 259, 3-{4-amino-6-[methyl(phenyl)amino]-1,3,5-triazin-2-yl}-N-{[6-(2,2,2-trifluoroethoxy)pyridin-3-yl]methyl}-1,2,4-oxadiazole-5-carboxamide] | 0.422 |
| COc1ccc(CNC(=O)c2nc(-c3nc(N)nc(N(C)c4ccccc4)n3)no2)cn1 [Example 260, 3-{4-amino-6-[methyl(phenyl)amino]-1,3,5-triazin-2-yl}-N-[(6-methoxypyridin-3-yl)methyl]-1,2,4-oxadiazole-5-carboxamide] | 1.2 |
| CN(c1ccccc1)c1nc(N)nc(-c2noc(C(=O)Nc3ccc(C(F)(F)F)nc3)n2)n1 [Example 263, 3-{4-amino-6-[methyl(phenyl)amino]-1,3,5-triazin-2-yl}-N-[6-(trifluoromethyl)pyridin-3-yl]-1,2,4-oxadiazole-5-carboxamide] | 6.01 |
| Nc1nc(Nc2cccc(Cl)c2F)nc(-c2noc(-c3ccccn3)n2)n1 [Example 264, 2-N-(3-Chloro-2-fluorophenyl)-6-[5-(pyridin-2-yl)-1,2,4-oxadiazol-3-yl]-1,3,5-triazine-2,4-diamine] | 0.774 |
| Nc1nc(Nc2cccc(Cl)c2)nc(-c2noc(-c3ccccn3)n2)n1 [Example 265, 2-N-(3-chlorophenyl)-6-[5-(pyridin-2-yl)-1,2,4-oxadiazol-3-yl]-1,3,5-triazine-2,4-diamine] | 0.386 |
| CN(c1ccccc1)c1nc(N)nc(-c2noc(C3CCCCC3)n2)n1 [Example 266, 6-(5-cyclohexyl-1,2,4-oxadiazol-3-yl)-2-N-methyl-2-N-phenyl-1,3,5-triazine-2,4-diamine] | 4.37 |
| CN(c1ccccc1)c1nc(N)nc(-c2noc(-c3ccc(C(F)(F)F)nc3)n2)n1 [Example 267, 2-N-methyl-2-N-phenyl-6-{5-[6-(trifluoromethyl)pyridin-3-yl]-1,2,4-oxadiazol-3-yl}-1,3,5-triazine-2,4-diamine] | > 8.26 |
| Cc1ncccc1-c1nc(-c2nc(N)nc(N(C)c3ccccc3)n2)no1 [Example 268, 2-N-methyl-6-[5-(2-methylpyridin-3-yl)-1,2,4-oxadiazol-3-yl]-2-N-phenyl-1,3,5-triazine-2,4-diamine] | 1.36 |
| CN(c1ccccc1)c1nc(N)nc(-c2noc(-c3cccc(N4CCOCC4)n3)n2)n1 [Example 270, 2-N-methyl-6-{5-[6-(morpholin-4-yl)pyridin-2-yl]-1,2,4-oxadiazol-3-yl}-2-N-phenyl-1,3,5-triazine-2,4-diamine] | 3.65 |
| CN(c1cccc(Cl)c1)c1nc(N)nc(-c2noc(-c3ncccc3F)n2)n1 [Example 272, 2-N-(3-chlorophenyl)-6-[5-(3-fluoropyridin-2-yl)-1,2,4-oxadiazol-3-yl]-2-N-methyl-1,3,5-triazine-2,4-diamine] | 0.478 |
| CN(c1ccccc1)c1nc(N)nc(-c2noc(-c3ncccc3Cl)n2)n1 [Example 273, 6-[5-(3-chloropyridin-2-yl)-1,2,4-oxadiazol-3-yl]-2-N-methyl-2-N-phenyl-1,3,5-triazine-2,4-diamine] | 0.253 |
| CN(c1ccccc1)c1nc(N)nc(-c2noc(N3CCC(NC(=O)C(F)(F)F)CC3)n2)n1 [Example 274, N-[1-(3-{4-amino-6-[methyl(phenyl)amino]-1,3,5-triazin-2-yl}-1,2,4-oxadiazol-5-yl)piperidin-4-yl]-2,2,2-trifluoroacetamide] | 8.58 |

| SMILES | IC50 [µM] |
| --- | --- |
| CN(c1ccccc1)c1nc(N)nc(-c2noc(-c3cccnc3Cl)n2)n1 [Example 275, 6-[5-(2-chloropyridin-3-yl)-1,2,4-oxadiazol-3-yl]-2-N-methyl-2-N-phenyl-1,3,5-triazine-2,4-diamine] | 3.49 |
| CN(c1ccccc1)c1nc(N)nc(-c2noc(C(=O)N3CCCC3)n2)n1 [Example 276, 2-N-methyl-2-N-phenyl-6-{5-[(pyrrolidin-1-yl)carbonyl]-1,2,4-oxadiazol-3-yl}-1,3,5-triazine-2,4-diamine] | 1.68 |
| CN(c1ccccc1)c1nc(N)nc(-c2noc(C(=O)N3CCCCC3)n2)n1 [Example 277, 2-N-methyl-2-N-phenyl-6-{5-[(piperidin-1-yl)carbonyl]-1,2,4-oxadiazol-3-yl}-1,3,5-triazine-2,4-diamine] | 3.26 |
| COC(=O)c1ccc(-c2nc(-c3nc(N)nc(N(C)c4ccccc4)n3)no2)cn1 [Example 279, methyl 5-(3-{4-amino-6-[methyl(phenyl)amino]-1,3,5-triazin-2-yl}-1,2,4-oxadiazol-5-yl)pyridine-2-carboxylate] | 0.444 |
| CN(c1ccccc1)c1nc(N)nc(-c2noc(-c3ccc(C(=O)NCC(F)(F)F)nc3)n2)n1 [Example 280, 5-(3-{4-Amino-6-[methyl(phenyl)amino]-1,3,5-triazin-2-yl}-1,2,4-oxadiazol-5-yl)-N-(2,2,2-trifluoroethyl)pyridine-2-carboxamide] | 0.513 |
| CN(c1ccccc1)c1nc(N)nc(-c2noc(-c3ncc(F)cc3F)n2)n1 [Example 281] | 1.81 |
| Cc1ccc(-c2nc(-c3nc(N)nc(N(C)c4ccccc4)n3)no2)cn1 [Example 283, 2-N-methyl-6-[5-(6-methylpyridin-3-yl)-1,2,4-oxadiazol-3-yl]-2-N-phenyl-1,3,5-triazine-2,4-diamine] | 1.38 |
| CN(c1ccccc1)c1nc(N)nc(-c2noc(-c3ccc(C(N)=O)nc3)n2)n1 [Example 284, 5-(3-{4-Amino-6-[methyl(phenyl)amino]-1,3,5-triazin-2-yl}-1,2,4-oxadiazol-5-yl)pyridine-2-carboxamide] | 0.711 |
| COC(=O)c1ccc(-c2nc(-c3nc(N)nc(N(C)c4ccccc4)n3)no2)nc1 [Example 285, methyl 6-(3-{4-amino-6-[methyl(phenyl)amino]-1,3,5-triazin-2-yl}-1,2,4-oxadiazol-5-yl)pyridine-3-carboxylate] | 0.308 |
| CN(c1ccccc1)c1nc(N)nc(-c2noc(-c3ccc(C(=O)NC4CCC4)nc3)n2)n1 [Example 286, 5-(3-{4-amino-6-[methyl(phenyl)amino]-1,3,5-triazin-2-yl}-1,2,4-oxadiazol-5-yl)-N-cyclobutylpyridine-2-carboxamide] | 1.07 |
| CN(c1ccccc1)c1nc(N)nc(-c2noc(-c3ccc(C(=O)NC4CC4)nc3)n2)n1 [Example 287, 5-(3-{4-amino-6-[methyl(phenyl)amino]-1,3,5-triazin-2-yl}-1,2,4-oxadiazol-5-yl)-N-cyclopropylpyridine-2-carboxamide] | 1.89 |
| CN(c1ccccc1)c1nc(N)nc(-c2noc(-c3ccc(C(=O)NCC4CC4)nc3)n2)n1 [Example 288, 5-(3-{4-amino-6-[methyl(phenyl)amino]-1,3,5-triazin-2-yl}-1,2,4-oxadiazol-5-yl)-N-(cyclopropylmethyl)pyridine-2-carboxamide] | 1.14 |
| CC(C)OC(=O)c1ccc(-c2nc(-c3nc(N)nc(N(C)c4ccccc4)n3)no2)cn1 [Example 289, propan-2-yl 5-(3-{4-amino-6-[methyl(phenyl)amino]-1,3,5-triazin-2-yl}-1,2,4-oxadiazol-5-yl)pyridine-2-carboxylate] | 0.39 |
| CN(c1ccccc1)c1nc(N)nc(-c2noc(-c3ccc(C(=O)OC4CCCC4)nc3)n2)n1 [Example 290, cyclopentyl 5-(3-{4-amino-6-[methyl(phenyl)amino]-1,3,5-triazin-2-yl}-1,2,4-oxadiazol-5-yl)pyridine-2-carboxylate] | 0.059 |
| CN(c1ccccc1)c1nc(N)nc(-c2noc(-c3ccc(C(=O)NCC(F)(F)F)cn3)n2)n1 [Example 292, 6-(3-{4-amino-6-[methyl(phenyl)amino]-1,3,5-triazin-2-yl}-1,2,4-oxadiazol-5-yl)-N-(2,2,2-trifluoroethyl)pyridine-3-carboxamide] | 2.71 |
| CN(c1ccccc1)c1nc(N)nc(-c2noc(-c3ccc(CN4CCCC4)nc3)n2)n1 [Example 293, 2-N-Methyl-2-N-phenyl-6-{5-[6-(pyrrolidin-1-ylmethyl)pyridin-3-yl]-1,2,4-oxadiazol-3-yl}-1,3,5-triazine-2,4-diamine] | 1.35 |
| CC(c1ccc(-c2nc(-c3nc(N)nc(N(C)c4ccccc4)n3)no2)nc1)N1CCCC1 (centres unmarked) [Example 294, 2-N-Methyl-2-N-phenyl-6-(5-{5-[1-(pyrrolidin-1-yl)ethyl]pyridin-2-yl}-1,2,4-oxadiazol-3-yl)-1,3,5-triazine-2,4-diamine] | 3.98 |
